Laboratory results from patent publication US10519152B2, “Compounds and their use in treating cancer” (AstraZeneca AB, priority 2017, dated 2019).

Molecular target: T1, Estrogen Receptor (ERα) in MCF-7 human ductal carcinoma breast cell line (Homo sapiens, UniProt P03372)
T1 construct: endogenous in cells; host or cells: MCF-7
T1 sequence (P03372 1-595): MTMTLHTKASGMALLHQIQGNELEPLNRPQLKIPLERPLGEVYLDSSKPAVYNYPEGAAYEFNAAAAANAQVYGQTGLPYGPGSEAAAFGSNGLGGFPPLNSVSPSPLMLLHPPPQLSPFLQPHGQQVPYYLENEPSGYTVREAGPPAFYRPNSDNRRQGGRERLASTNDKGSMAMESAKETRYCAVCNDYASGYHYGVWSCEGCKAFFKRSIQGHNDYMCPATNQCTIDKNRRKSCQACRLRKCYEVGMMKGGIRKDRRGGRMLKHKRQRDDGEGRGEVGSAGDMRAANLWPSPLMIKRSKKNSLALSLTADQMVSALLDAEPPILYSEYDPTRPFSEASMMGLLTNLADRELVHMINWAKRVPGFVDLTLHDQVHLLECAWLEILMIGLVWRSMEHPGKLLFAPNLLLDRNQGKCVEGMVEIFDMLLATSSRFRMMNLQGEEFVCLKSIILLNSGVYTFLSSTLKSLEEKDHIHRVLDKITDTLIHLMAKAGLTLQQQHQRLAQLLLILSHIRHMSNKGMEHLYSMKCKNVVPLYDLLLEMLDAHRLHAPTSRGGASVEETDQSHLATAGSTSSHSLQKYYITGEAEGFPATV
Test: MCF-7 ER degradation assay (cell based immuno-fluorescence)
Settings: MCF-7 cells; for ER degradation ≥ 90% at 0.3 μM: ER degradation by fulvestrant at 0.3 μM is defined as 100%; for DC50: 18-22 hours incubation, 50% reduction of ERα expression, single experiment or average of two or more, read-out: MCF-7 ER degradation IC50
Summary of the method: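 MCF-7 human ductal carcinoma breast cells were seeded at 3.75×10^4 cells per mL (40 μL per well) in 384 well plates with phenol red free DMEM containing 2 mM L-Glutamine and 5% (v/v) Charcoal/Dextran treated foetal calf serum. After overnight culture, compounds were acoustically dispensed, incubated 18-22 hours, then cells were formaldehyde-fixed and immunostained for ERα.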

SMILES | ER degradation ≥ 90% at 0.3 μM | DC50
Cc1ncsc1-c1ccc(CNC(=O)[C@@H]2C[C@@H](O)CN2C(=O)[C@@H](NC(=O)COCCCOCCCCCOc2cc(F)c([C@@H]3c4[nH]c5ccccc5c4C[C@@H](C)N3CC(C)(C)F)c(F)c2)C(C)(C)C)cc1 [Example 138, (2S,4R)-1-((S)-2-(2-(3-((5-(3,5-Difluoro-4-((R,3R)-2-(2-fluoro-2-methylpropyl)-3-methyl-2,3,4,9-tetrahydro-1H-pyrido[3,4-b]indol-1-yl)phenoxy)pentyl)oxy)propoxy)acetamido)-3,3-dimethylbutanoyl)-4-hydroxy-N-(4-(4-methylthiazol-5-yl)benzyl)pyrrolidine-2-carboxamide] | •• | 1.1 nM
Cc1ncsc1-c1ccc(CNC(=O)[C@@H]2C[C@@H](O)CN2C(=O)[C@@H](NC(=O)COCCOCCCCCOc2cc(F)c([C@@H]3c4[nH]c5ccccc5c4C[C@@H](C)N3CC(F)(F)F)c(F)c2)C(C)(C)C)cc1 [Example 139, (2S,4R)-1-((S)-2-(2-(2-((5-(3,5-Difluoro-4-((1R,3R)-3-methyl-2-(2,2,2-trifluoroethyl)-2,3,4,9-tetrahydro-1H-pyrido[3,4-b]indol-1-yl)phenoxy)pentyl)oxy)ethoxy)acetamido)-3,3-dimethylbutanoyl)-4-hydroxy-N-(4-(4-methylthiazol-5-yl)benzyl)pyrrolidine-2-carboxamide] | •• | 1.1 nM
Cc1ncsc1-c1ccc([C@H](C)NC(=O)[C@@H]2C[C@@H](O)CN2C(=O)[C@@H](NC(=O)COCCOCCCCCOc2cc(F)c([C@@H]3c4[nH]c5ccccc5c4C[C@@H](C)N3CC(F)(F)F)c(F)c2)C(C)(C)C)cc1 [Example 140, (2S,4R)-1-((S)-2-(2-(2-((5-(3,5-Difluoro-4-((1R,3R)-3-methyl-2-(2,2,2-trifluoroethyl)-2,3,4,9-tetrahydro-1H-pyrido[3,4-b]indol-1-yl)phenoxy)pentyl)oxy)ethoxy)acetamido)-3,3-dimethylbutanoyl)-4-hydroxy-N—((S)-1-(4-(4-methylthiazol-5-yl)phenyl)ethyl)pyrrolidine-2-carboxamide] | •• | 0.6 nM
Cc1ncsc1-c1ccc(CNC(=O)[C@@H]2C[C@@H](O)CN2C(=O)[C@@H](NC(=O)CCCc2ccc(COc3cc(F)c([C@@H]4c5[nH]c6ccccc6c5C[C@@H](C)N4CC(C)(C)F)c(F)c3)nc2)C(C)(C)C)cc1 [Example 141, (2S,4R)-1-((S)-2-(4-(6-((3,5-Difluoro-4-((1R,3R)-2-(2-fluoro-2-methylpropyl)-3-methyl-2,3,4,9-tetrahydro-1H-pyrido[3,4-b]indol-1-yl)phenoxy)methyl)pyridin-3-yl)butanamido)-3,3-dimethylbutanoyl)-4-hydroxy-N-(4-(4-methylthiazol-5-yl)benzyl)pyrrolidine-2-carboxamide] | • | 0.9 nM
Cc1ncsc1-c1ccc(CNC(=O)[C@@H]2C[C@@H](O)CN2C(=O)[C@@H](NC(=O)COCCCCC(=O)NCCOc2cc(F)c([C@@H]3c4[nH]c5ccccc5c4C[C@@H](C)N3CC(C)(C)F)c(F)c2)C(C)(C)C)cc1 [Example 142, (2S,4R)-1-((S)-2-(2-((5-((2-(3,5-Difluoro-4-((1R,3R)-2-(2-fluoro-2-methylpropyl)-3-methyl-2,3,4,9-tetrahydro-1H-pyrido[3,4-b]indol-1-yl)phenoxy)ethyl)amino)-5-oxopentyl)oxy)acetamido)-3,3-dimethylbutanoyl)-4-hydroxy-N-(4-(4-methylthiazol-5-yl)benzyl)pyrrolidine-2-carboxamide] | •• | 0.2 nM
Cc1ncsc1-c1ccc(CNC(=O)[C@@H]2C[C@@H](O)CN2C(=O)[C@@H](NC(=O)COCCCCC(=O)N(C)CCOc2cc(F)c([C@@H]3c4[nH]c5ccccc5c4C[C@@H](C)N3CC(C)(C)F)c(F)c2)C(C)(C)C)cc1 [Example 143, (2S,4R)-1-((S)-2-(2-((5-((2-(3,5-Difluoro-4-((1R,3R)-2-(2-fluoro-2-methylpropyl)-3-methyl-2,3,4,9-tetrahydro-1H-pyrido[3,4-b]indol-1-yl)phenoxy)ethyl)(methyl)amino)-5-oxopentyl)oxy)acetamido)-3,3-dimethylbutanoyl)-4-hydroxy-N-(4-(4-methylthiazol-5-yl)benzyl)pyrrolidine-2-carboxamide] | •• | 0.2 nM
Cc1ncsc1-c1ccc(CNC(=O)[C@@H]2C[C@@H](O)CN2C(=O)[C@@H](NC(=O)COCc2ccc(C(=O)Nc3cc(F)c([C@@H]4c5[nH]c6ccccc6c5C[C@@H](C)N4CC(C)(C)F)c(F)c3)nc2)C(C)(C)C)cc1 [Example 144, N-(3,5-Difluoro-4-((1R,3R)-2-(2-fluoro-2-methylpropyl)-3-methyl-2,3,4,9-tetrahydro-1H-pyrido[3,4-b]indol-1-yl)phenyl)-5-((2-(((S)-1-((2S,4R)-4-hydroxy-2-((4-(4-methylthiazol-5-yl)benzyl)carbamoyl)pyrrolidin-1-yl)-3,3-dimethyl-1-oxobutan-2-yl)amino)-2-oxoethoxy)methyl)picolinamide] | •• | 0.5 nM
Cc1ncsc1-c1ccc(CNC(=O)[C@@H]2C[C@@H](O)CN2C(=O)[C@@H](NC(=O)CNCc2ccc(COc3cc(F)c([C@@H]4c5[nH]c6ccccc6c5C[C@@H](C)N4CC(C)(C)F)c(F)c3)nc2)C(C)(C)C)cc1 [Example 146] | • | 0.6 nM
Cc1ncsc1-c1ccc(CNC(=O)[C@@H]2C[C@@H](O)CN2C(=O)[C@@H](NC(=O)CNCCCCCCCCOc2cc(F)c([C@@H]3c4[nH]c5ccccc5c4C[C@@H](C)N3CC(C)(C)F)c(F)c2)C(C)(C)C)cc1 [Example 147, (2S,4R)-1-((S)-2-(2-((8-(3,5-Difluoro-4-((1R,3R)-2-(2-fluoro-2-methylpropyl)-3-methyl-2,3,4,9-tetrahydro-1H-pyrido[3,4-b]indol-1-yl)phenoxy)octyl)amino)acetamido)-3,3-dimethylbutanoyl)-4-hydroxy-N-(4-(4-methylthiazol-5-yl)benzyl)pyrrolidine-2-carboxamide] | • | 5.8 nM
Cc1ncsc1-c1ccc([C@H](C)NC(=O)[C@@H]2C[C@@H](O)CN2C(=O)[C@@H](NC(=O)COCCCOCCCOc2cc(F)c([C@@H]3c4[nH]c5ccccc5c4C[C@@H](C)N3CC(C)(C)F)c(F)c2)C(C)(C)C)cc1 [Example 152, (2S,4R)-1-((S)-2-(2-(3-(3-(3,5-Difluoro-4-((1R,3R)-2-(2-fluoro-2-methylpropyl)-3-methyl-2,3,4,9-tetrahydro-1H-pyrido[3,4-b]indol-1-yl)phenoxy)propoxy)propoxy)acetamido)-3,3-dimethylbutanoyl)-4-hydroxy-N—((S)-1-(4-(4-methylthiazol-5-yl)phenyl)ethyl)pyrrolidine-2-carboxamide] | •• | 0.8 nM
Cc1ncsc1-c1ccc([C@H](C)NC(=O)[C@@H]2C[C@@H](O)CN2C(=O)[C@@H](NC(=O)COCCOCCCCOc2cc(F)c([C@@H]3c4[nH]c5ccccc5c4C[C@@H](C)N3CC(C)(C)F)c(F)c2)C(C)(C)C)cc1 [Example 153, (2S,4R)-1-((S)-2-(2-(2-(4-(3,5-Difluoro-4-((1R,3R)-2-(2-fluoro-2-methylpropyl)-3-methyl-2,3,4,9-tetrahydro-1H-pyrido[3,4-b]indol-1-yl)phenoxy)butoxy)ethoxy)acetamido)-3,3-dimethylbutanoyl)-4-hydroxy-N—((S)-1-(4-(4-methylthiazol-5-yl)phenyl)ethyl)pyrrolidine-2-carboxamide] | •• | 0.4 nM
Cc1ncsc1-c1ccc([C@H](C)NC(=O)[C@@H]2C[C@@H](O)CN2C(=O)[C@@H](NC(=O)COCCCCOCCCOc2cc(F)c([C@@H]3c4[nH]c5ccccc5c4C[C@@H](C)N3CC(C)(C)F)c(F)c2)C(C)(C)C)cc1 [Example 154, (2S,4R)-1-((S)-2-(2-(4-(3-(3,5-Difluoro-4-((1R,3R)-2-(2-fluoro-2-methylpropyl)-3-methyl-2,3,4,9-tetrahydro-1H-pyrido[3,4-b]indol-1-yl)phenoxy)propoxy)butoxy)acetamido)-3,3-dimethylbutanoyl)-4-hydroxy-N—((S)-1-(4-(4-methylthiazol-5-yl)phenyl)ethyl)pyrrolidine-2-carboxamide] | • | 0.7 nM
Cc1ncsc1-c1ccc([C@H](C)NC(=O)[C@@H]2C[C@@H](O)CN2C(=O)[C@@H](NC(=O)COCCOCCCCCOc2cc(F)c([C@@H]3c4[nH]c5ccccc5c4C[C@@H](C)N3CC(C)(C)F)c(F)c2)C(C)(C)C)cc1 [Example 156, (2S,4R)-1-((S)-2-(2-(2-((5-(3,5-Difluoro-4-((1R,3R)-2-(2-fluoro-2-methylpropyl)-3-methyl-2,3,4,9-tetrahydro-1H-pyrido[3,4-b]indol-1-yl)phenoxy)pentyl)oxy)ethoxy)acetamido)-3,3-dimethylbutanoyl)-4-hydroxy-N—((S)-1-(4-(4-methylthiazol-5-yl)phenyl)ethyl)pyrrolidine-2-carboxamide] | •• | 1.5 nM
